According to patent US11339448B2, “Treatment of acute myeloid leukemia” (Ottawa Hospital Research Institute, priority 2018, dated 2022):

Legend:
Assay type in all cases: cell-based, human
[1] = tested on: MTF2 shRNA knockdown (SH3 or SH7) HSPCs; experiment: Cell cycle (DRAQ5) and PCNA proliferation analysis in HSPCs; settings: for fraction of viable MTF2-deficient cells that were PCNA+: MTF2-deficient HSPCs, 48 hours post-treatment; for overall PCNA levels (proliferation): MTF2 deficient (SH3 or SH7) HSPCs, 1 μM, 24 hours post-treatment; for population distribution within the cell cycle stages: scramble or MTF2 knockdown HSPCs, 1 μM for 24 hours
Protocol: (§1) Cells were sorted using cell surface markers, then fixed in 4% PFA, permeabilized with 0.3% Triton and stained for MTF2 (Genway, clone M96), EZH2 (Millipore, clone AC22), SUZ12 (Millipore, clone 2AO9), H3K27me3 (Cell Signaling, clone C36B11), PCNA (Santa Cruz, clone C10), p53 (Cell Signaling, clone 1C12), or MDM2 (Santa Cruz, clone C18) and appropriate secondary antibodies. Protein expression was determined by flow cytometry compared with an isotype-only control and ran on the LSRFortessa™ Cell Analyzer (BD Biosciences). Data analysis was performed using FlowJo v10.2 to compare mean fluorescent intensity values.
(§2) For cell cycle analysis, cells were fixed and stained with DRAQ5 (BD Biosciences) to assess cell cycle state. For assessing p53 signaling and MTF2 rescue experiments, cells were stained with antibodies against p53, MDM2 or H3K27me3 as above and with DRAQ5 for nucleic acid detection. Cells were analyzed using the ImageStream imaging flow cytometer (Amnis). The nuclear contents of each protein were determined using the preset wizard tool “Nuclear Localization”, within the Amnis IDEAS analysis software.
(§3) Lin^−CD34^+ cells isolated from either umbilical cord blood or primary AML patient bone marrow aspirates were transduced as above, sorted for GFP^+ and cultured in 96-well plates at 100,000 cells/100 uL/well in duplicates. The drugs Daunorubicin, Cytarabine, Nutlin3a and M1773 were dissolved in DMSO. Cytarabine and Daunorubicin were added at concentrations of 1 μM and 0.5 μM, respectively. After 1 hour of incubation with Daunorubicin, cells were collected and transferred into fresh media to remove Daunorubicin from the media. The MDM2 pathway inhibitors, Nutlin3a and M1773 were added at concentrations of 1 μM.

Lin−CD34+ HSPCs [2] = experiment: Alkaline comet assay (DNA damage accumulation, Olive moment); settings: for DNA damage accumulation (Olive moment): scramble vs MTF2 shRNA transduced HSPCs, over a 48-hour period; for DNA damage accumulation: MTF2-deficient HSPCs, in combination with Cytarabine or Daunorubicin
Protocol: Alkaline comet assays were performed using GelBond Films and buffers were prepared as described^22. Slides were stained with SYBR Gold and imaged using Zeiss Axio2 Imaging inverted microscope equipped with a 5× Plan-NEOFLUAR 0.3NA objective and an AxioCam MRm camera through a FITC-compatible filter. At least 10 random fields containing a minimum of 20 non-overlapping comets in each group total were photographed. Blinded imaging acquisition and analysis was performed using ImageJ software (NIH) and the OpenComet comet assay plugin calculating Olive moment (arbitrary units) on the basis of comet head and tail sizes (measured in pixels) and their integral intensity. The magnitude of these parameters depends on time of electrophoresis, staining brightness and image magnification, which were constant within each assay and between experiments. Comet assays were independently repeated using HSPCs isolated from 3 different UCB samples. Statistical significance was determined by two-way ANOVA using GraphPad Prism software version 6.
as §3

[3] = tested on: MTF2 deficient refractory AML cells [MD-AML]; experiment: Cell viability / apoptosis assay (Annexin V/7-AAD) in primary AML patient cells; settings: for viability of CD34+CD38− cells from MD-AML patients: 0.5 μM Daunorubicin or 1 μM Cytarabine, over 48 hours; for apoptosis: MD-AML cells, in combination with Cytarabine or Daunorubicin; for sensitivity to Cytarabine / sensitivity to Daunorubicin: MD-AML, comparable to B-AML; for sensitivity to Cytarabine: combination with Cytarabine; for sensitivity to Daunorubicin: combination with Daunorubicin; for apoptosis / apoptotic effect, MDM2 inhibitor alone: treatment alone, over the course of 48 hours
Protocol: Lin^−CD34^+ primary AML bone marrow cells were maintained in IMDM media containing SCF (100 ng/mL), FLT3 (50 ng/mL), IL-3 (20 ng/mL), G-CSF (20 ng/mL) and 10^−4M Beta-mercaptoethanol^21. Growth factors were purchased from Peprotech. On Day 1 of infection, cells were incubated with polybrene (6 mg/ml) for 2 hours at 37° C., then combined with viral supernatants containing either a GFP-tagged MTF2 overexpression vector clone or an empty vector control at a MOI of 30.
(§4) Apoptosis was assessed in sorted cells by the dual staining of AnnexinV and 7-AAD (eBiosciences). Flow cytometric analyses of treated samples were performed consistently, using the same gating strategy throughout. Viable cells were categorized as being AnnexinV and 7-AAD negative, late apoptotic/dead cells were categorized as being AnnexinV and 7-AAD positive.
as §3

Lin−CD34+ HSPCs [4] = experiment: Cell viability / apoptosis assay (Annexin V/7-AAD) in shRNA-transduced HSPCs; settings: for sensitivity to induction therapy drugs (cell viability): MTF2-deficient HSPCs, in combination with Cytarabine or Daunorubicin
Protocol: HSPCs (Lin^−CD34^+) were maintained in IMDM media containing bovine serum albumin, insulin, and transferrin (Stem Cell Technologies), 1% PenStrep (ThermoFisher), SCF (100 ng/mL), TPO (50 ng/mL), FLT3 (100 ng/mL), 1% Glutamax (InVitrogen), and LDL (1 μg/ml) (Calbiochem). Growth factors were purchased from Peprotech. On Day 1 of infection, cells were incubated with polybrene (Sigma) (6 mg/ml) for 2 hours at 37° C., then combined with viral supernatants containing either a GFP-tagged MTF2 shRNA clone or a scrambled shRNA control (ThermoFisher) at a MOI of 100. Cells were centrifuged at 400 g for 20 minutes, then maintained at 37° C. On Day 2, the infection was repeated. Cells were grown for 3 days using a fed-batch culture system^21, then sorted for high GFP-expression and viability by negative selection of Propidium Iodide using the Beckman Coulter MoFlo sorter.
as §4, §3

[5] = tested on: p53 levels in Lin−CD34+ leukemic cells (MD-AML); experiment: Imaging flow cytometry of p53 levels in refractory patient leukemic cells; settings: Lin−CD34+ leukemic cells from refractory patient BM aspirates (MD-AML)
Protocol: as §1, §2
Lin^−CD34^+ cells isolated from either umbilical cord blood or primary AML patient bone marrow aspirates were transduced as above, sorted for GFP^+ and cultured in 96-well plates at 100,000 cells/100 uL/well in duplicates. […]

MDM2 and p53 levels = experiment: Imaging flow cytometry of MDM2 and p53 levels in MTF2 knockdown HSPCs; settings: for MDM2 and p53 levels within the nucleus: MTF2 knockdown (SH3) HSPCs, 1 μM
Protocol: as §1, §2, §3

[6] = MTF2 knockdown (SH7) HSPCs, 1 uM

SMILES | fraction of viable MTF2-deficient cells that were PCNA+ [1] | DNA damage accumulation (Olive moment) (Lin−CD34+ HSPCs [2]) | viability of CD34+CD38− cells from MD-AML patients [3] | viability at 1 µM (Lin−CD34+ HSPCs [4]; Homo sapiens, MTF2 shRNA knockdown HSPCs, 48 hours after treatment (Daunorubicin 0.5 μM or Cytarabine 1 μM), read-out: MTF2-deficient cells viable) | overall PCNA levels (proliferation) [1] | population distribution within the cell cycle stages [1] | DNA damage accumulation (Lin−CD34+ HSPCs [2]) | p53 levels [5] | p53 levels (MDM2 and p53 levels; MTF2-deficient HSPCs) | MDM2 and p53 levels within the nucleus (MDM2 and p53 levels) | MDM2 levels (MDM2 and p53 levels; [6]) | p53 levels (MDM2 and p53 levels; [6]) | apoptosis [3] | sensitivity to Cytarabine ([3]; 48 hours) | sensitivity to Cytarabine ([3]; within 24 hours) | sensitivity to Daunorubicin ([3]; 48 hours) | sensitivity to Daunorubicin ([3]; within 24 hours) | apoptosis / apoptotic effect, MDM2 inhibitor alone [3] | sensitivity to induction therapy drugs (cell viability) (Lin−CD34+ HSPCs [4]) | apoptosis / apoptotic effect, MDM2 inhibitor alone ([3]; listed as Nutlin3a)
Nc1ccn([C@@H]2O[C@H](CO)[C@@H](O)[C@@H]2O)c(=O)n1 [Cytarabine] | two-thirds | highest levels of DNA damage were found in the scramble control HSPCs | remain viable over 48 hours | > 60% | – | – | – | – | – | – | – | – | – | – | – | – | – | – | – | –
COc1cccc2c1C(=O)c1c(O)c3c(c(O)c1C2=O)C[C@@](O)(C(C)=O)C[C@@H]3O[C@H]1C[C@H](N)[C@H](O)[C@H](C)O1 [Daunorubicin] | two-thirds | highest levels of DNA damage were found in the scramble control HSPCs | remain viable over 48 hours | – | – | – | – | – | – | – | – | – | – | – | – | – | – | – | – | –
CC(C)(C)C[C@H]1N[C@@H](C(=O)NC2CCC(O)CC2)[C@H](c2cccc(Cl)c2F)[C@@]12C(=O)Nc1cc(Cl)ccc12 (stereo partly drawn) [MI-773, (2′R,3S,3′S,5′R)-6-chloro-3′-(3-chloro-2-fluorophenyl)-5′-(2,2-dimethylpropyl)-N-(4-hydroxycyclohexyl)-2-oxospiro[1H-indole-3,4′-pyrrolidine]-2′-carboxamide] | – | – | – | – | decrease in overall PCNA levels | arresting in G0/G1 | same amount of DNA damage accumulation as that found within scramble controls | rescued | rescued | reestablished MDM2 and p53 levels to those observed in the scramble untreated control | low | restored | underwent apoptosis | increased sensitivity | increased sensitivity | increased sensitivity | increased sensitivity | very low apoptotic effect | sensitized to induction therapy drugs | –
COc1ccc(C2=N[C@@H](c3ccc(Cl)cc3)[C@@H](c3ccc(Cl)cc3)N2C(=O)N2CCNC(=O)C2)c(OC(C)C)c1 [Nutlin3A, 4-[(4S,5R)-4,5-bis(4-chlorophenyl)-2-(4-methoxy-2-propan-2-yloxyphenyl)-4,5-dihydroimidazole-1-carbonyl]piperazin-2-one] | – | – | – | – | decrease in overall PCNA levels | arresting in G0/G1 | same amount of DNA damage accumulation as that found within scramble controls | rescued | rescued | reestablished MDM2 and p53 levels to those observed in the scramble untreated control | low | restored | underwent apoptosis | increased sensitivity | increased sensitivity | increased sensitivity | increased sensitivity | – | sensitized to induction therapy drugs | very low apoptotic effect
